The test system of assay [1] is acetic acid-induced writhing mouse pain model. As to the kind of experiment: Measurement of time of peak activity in the acetic acid-induced writhing mouse pain model. The assay is classed as in vivo. Conditions: 584 umol/kg s.c. The protocol: Groups of 10 ICR male mice (Taisho Pharmaceutical Co. Research Center) were used to study each dose of every compound. […] Number of writhes were counted for each mouse during a period of 10 to 20 min after acetic acid injection. Inhibitory percent was calculated by comparison with the number of writhes in the non-treated control, vehicle-treated, and acetic acid-injected group. The ED50 value and 95% confidence limits were calculated from the inhibitory percent by the method of Litchfield and Wilcoxon.
(§1) All drugs were suspended with 5% gum arabic in saline solution or wetted with enough propylene glycol to give a final concentration of 4% propylene glycol and the wetted solid suspended in 1.4% polyvinyl alcohol in saline.
(In writhing tests, fewer writhes than in controls are read as antinociception.)

Assay [2] has as its system adjuvant-induced arthritic pain in rats. As to the kind of experiment: Adjuvant-induced arthritic pain. Format: in vivo, male Sprague-Dawley rats. Conditions: for time course of analgesia: FIG. 1, 5 hours post-treatment.
Text: 2. Adjuvant-induced arthritic pain as described in:
S. KUZNA, et al., Measurement of Arthritic Pain and Effects of Analgesics in the Adjuvant-Treated Rat, Chem. Pharm. Bull. 23, 1184-1191 (1975);
C. A. WINTER, et al., Analgesic Activity of Diflunisal in Rats with Hyperalygesia Induced by Freud's Adjuvant, J. Pharmacol. Exp. Ther. 211, 678-685 (1979; and
M. E. ROSENTHALE, et al., Adjuvant Arthritis:Immuno-Pathological and Hyperalgesic Features, Fed. Proced. 41, 2577-2582 (1982),
incorporated by reference herein.
Groups of 5-6 male Sprague-Dawley rats (Taisho Pharmaceutical Co. Research Center) weighing 140 to 160 g at the time of Mycobacterium butyricum (adjuvant, Difco Laboratories, Detroit, Mich.) injection were used to study each compound. Rats were injected intradermally at the base of the tail with 0.1 ml of a parafin oil suspension of 0.5 mg of heat-killed mycobacterium. Fifteen to 19 days later, drugs were administered orally or subcutaneously in 0.5 ml of vehicle per 100 g of body weight to rats showing the nociceptive reaction, vocalization following a gentle flexion of the tarsal-tibial joint of the inflamed hind-paw. Vocalization responses were measured every hour for 5 hours. […] The ED50 value and 95% confidence limits were calculated from the positive rate for non-treated controls, vehicle-treated adjuvant arthritic rats, by the method of Litchfield and Wilcoxin.
as §1

Assay [3] relates to acetic acid induced writhing in mice. As to the kind of experiment: Acetic acid-induced writhing test. The assay is classed as in vivo, ICR male mice. The protocol:
1. Acetic acid-induced writhing test as described in Koster et al., "Acetic Acid for Analgesic Screening", Fed. Proc. 18, 412 (1959), incorporated by reference herein; and
Groups of 10 ICR male mice (Taisho Pharmaceutical Co. Research Center) were used to study each dose of every compound. Ligands or complexes were administered orally or subcutaneously in 0.1 ml of vehicle per 10 g of body weight 30 minutes before the intrapertioneal injection of 0.1 ml of 0.7% acetic acid solution per 10 g of body weight. Number of writhes were counted for each mouse during a period of 10 to 20 min after acetic acid injection. Inhibitory percent was calculated by comparison with the number of writhes in the non-treated control, vehicle-treated, and acetic acid-injected group. The ED50 value and 95% confidence limits were calculated from the inhibitory percent by the method of Litchfield and Wilcoxon.

[4] abbreviates: oral, 5% gum arabic, 0.30 mmol/kg.
[5] abbreviates: oral, 5% gum arabic, 0.59 mmol/kg.
Setting [6] is: oral, 5% gum arabic, 0.06 mmol/kg.
Setting [7] is: oral, 5% gum arabic, 0.12 mmol/kg.
Where [8] appears, read: oral, 5% gum arabic, 0.24 mmol/kg.
Setting [9] is: oral, 5% gum arabic, 0.04 mmol/kg.
Where [10] appears, read: oral, 5% gum arabic, 0.08 mmol/kg.

Turning to `CCN(CC)C(=S)[S-].[Na+]` [NaDDC, sodium diethyldithiocarbamate, reference compound], the Inhibition % is listed as 48% in assay [1] (30 min), 53% in assay [1] (60 min), 20% in assay [1] (120 min) and 18% in assay [1] (180 min).

Take `O=C(O)c1ccccc1O` [Salicylic acid, reference compound]: the ED50 – broadly, the midpoint of the dose-response relation – is recorded as 2.33 mmol/kg in assay [2] (oral, 5% gum arabic in saline); 1.83 mmol/kg in assay [2] (oral, PG-PVA in saline); 2.13 mmol/kg in assay [3] (oral, 5% gum arabic in saline); greater than 2.17 mmol/kg in assay [3] (oral, PG-PVA in saline); 1.02 mmol/kg in assay [3] (s.c., PG-PVA in saline). Further, the % Inhibition – broadly, the percentage by which the read-out fell short of the control – in assay [2] (oral, 5% gum arabic, 1.09 mmol/kg) was 27%; in assay [2] (oral, 5% gum arabic, 2.17 mmol/kg), 57%; in assay [2] (oral, 5% gum arabic, 4.34 mmol/kg) it was 37%; in assay [2] (oral, PG-PVA, 0.72 mmol/kg), 33%; in assay [2] (oral, PG-PVA, 1.44 mmol/kg), 43%; in assay [2] (oral, PG-PVA, 2.88 mmol/kg) it was 60%. The “% Inhibition” value stood at 29% in assay [3] (oral, 5% gum arabic, 0.91 mmol/kg); 33% in assay [3] (oral, 5% gum arabic, 1.81 mmol/kg); 73% in assay [3] (oral, 5% gum arabic, 3.62 mmol/kg); 38% in assay [3] (oral, PG-PVA, 2.17 mmol/kg); 25% in assay [3] (s.c., PG-PVA, 0.54 mmol/kg); 52% in assay [3] (s.c., PG-PVA, 1.09 mmol/kg). In assay [3] (s.c., PG-PVA, 2.17 mmol/kg), the “% Inhibition” value stood at 80%. In assay [2] (oral, 5% gum arabic), the “time course of analgesia” value is listed as “began to decline in the 3 to 4 hr interval following treatment”.

As for “(Salicylato)2n -(aqua)4n -copper(II)n [Cu(II)(salicylate)2]”, the “analgesic effectiveness versus parent ligand” value in assay [2] (oral, 5% gum arabic) is listed as “more effective than its parent ligand”; in assay [2] (oral, PG-PVA), “more effective than its parent ligand”; in assay [3] (oral, 5% gum arabic in saline) it was “more effective than their parent ligands”; in assay [3] (oral, PG-PVA), “more effective than their parent ligands”. Also, the ED50 in assay [2] (oral, 5% gum arabic in saline) is 0.25 mmol/kg; in assay [2] (oral, PG-PVA in saline), 0.12 mmol/kg; in assay [2] (s.c., PG-PVA in saline) it was 0.12 mmol/kg; in assay [3] (oral, 5% gum arabic in saline) it was 0.65 mmol/kg; in assay [3] (oral, PG-PVA in saline), 1.53 mmol/kg; in assay [3] (s.c., PG-PVA in saline), 0.17 mmol/kg. Further, the “% Inhibition” value in assay [2] (oral, 5% gum arabic, 0.15 mmol/kg) was found to be 27%; in assay [2] (setting [4]), 57%; in assay [2] (setting [5]), 73%; in assay [2] (oral, PG-PVA, 0.15 mmol/kg), 30%; in assay [2] (oral, PG-PVA, 0.30 mmol/kg), 47%; in assay [2] (oral, PG-PVA, 0.59 mmol/kg), 90%. In addition, the “% Inhibition” value in assay [2] (s.c., PG-PVA, 0.04 mmol/kg) is 20%; in assay [2] (s.c., PG-PVA, 0.07 mmol/kg), 37%; in assay [2] (s.c., PG-PVA, 0.15 mmol/kg), 57%; in assay [3] (setting [4]), 30%; in assay [3] (setting [5]), 43%; in assay [3] (oral, 5% gum arabic, 1.18 mmol/kg), 69%. In addition, the “% Inhibition” value in assay [3] (oral, PG-PVA, 0.30 mmol/kg) was determined as 20%; in assay [3] (oral, PG-PVA, 0.59 mmol/kg), 27%; in assay [3] (oral, PG-PVA, 1.18 mmol/kg), 46%; in assay [3] (s.c., PG-PVA, 0.07 mmol/kg), 40%; in assay [3] (s.c., PG-PVA, 0.15 mmol/kg), 48%; in assay [3] (s.c., PG-PVA, 0.30 mmol/kg) it was 66%. The “time course of analgesia” value in assay [2] (oral, 5% gum arabic) is recorded as “maintained or increased throughout the entire 5 hour post-treatment interval”.

Consider Cu(II)2 (acetate)4, for which the analgesic activity result in assay [2] (doses statistically significantly analgesic in the writhing model) is on record as “devoid of analgesic activity”. Further, the ED50 in assay [2] (oral, PG-PVA in saline) is listed as greater than 0.83 mmol/kg; in assay [2] (s.c., PG-PVA in saline), greater than 0.83 mmol/kg; in assay [3] (s.c., PG-PVA in saline), 0.32 mmol/kg. The “% Inhibition” value in assay [2] (oral, PG-PVA, 0.83 mmol/kg) was determined as 0%; in assay [2] (s.c., PG-PVA, 0.83 mmol/kg) it was 3%; in assay [3] (s.c., PG-PVA, 0.21 mmol/kg), 42%; in assay [3] (s.c., PG-PVA, 0.41 mmol/kg) it was 59%; in assay [3] (s.c., PG-PVA, 0.83 mmol/kg) it was 61%. For the same compound, in assay [3] (writhing model, Tables I and II), the “effectiveness versus other compounds” value is “more effective than anthranilic acid, salicylic acid, and aspirin”.

For “Tetra(.eta.-acetylsalicylato)biscopper(II) [Cu(II)2 (aspirinate)4]”, the “analgesic effectiveness versus parent ligand” value in assay [2] (oral, 5% gum arabic) was “more effective than their parent ligand”; in assay [3] (oral, 5% gum arabic in saline) it was “more effective than their parent ligands”; in assay [3] (oral, PG-PVA), “more effective than their parent ligands”. Besides, the ED50 is listed as 0.29 mmol/kg in assay [2] (oral, 5% gum arabic in saline); 0.09 mmol/kg in assay [2] (oral, PG-PVA in saline); 0.06 mmol/kg in assay [2] (s.c., PG-PVA in saline); greater than 0.24 mmol/kg in assay [3] (oral, 5% gum arabic in saline); 0.14 mmol/kg in assay [3] (oral, PG-PVA in saline); 0.04 mmol/kg in assay [3] (s.c., PG-PVA in saline). Further, the “% Inhibition” value was found to be 7% in assay [2] (setting [6]); 17% in assay [2] (setting [7]); 43% in assay [2] (setting [8]); 13% in assay [2] (oral, PG-PVA, 0.03 mmol/kg); 30% in assay [2] (oral, PG-PVA, 0.06 mmol/kg); 60% in assay [2] (oral, PG-PVA, 0.12 mmol/kg). Besides, the “% Inhibition” value is reported as 23% in assay [2] (s.c., PG-PVA, 0.03 mmol/kg); 50% in assay [2] (s.c., PG-PVA, 0.06 mmol/kg); 73% in assay [2] (s.c., PG-PVA, 0.12 mmol/kg); 37% in assay [3] (setting [6]); 38% in assay [3] (setting [7]); 33% in assay [3] (setting [8]). Moreover, the “% Inhibition” value in assay [3] (oral, PG-PVA, 0.09 mmol/kg) was determined as 32%; in assay [3] (oral, PG-PVA, 0.18 mmol/kg) it was 59%; in assay [3] (oral, PG-PVA, 0.36 mmol/kg) it was 80%; in assay [3] (s.c., PG-PVA, 0.03 mmol/kg), 36%; in assay [3] (s.c., PG-PVA, 0.06 mmol/kg), 59%; in assay [3] (s.c., PG-PVA, 0.24 mmol/kg), 82%.

Regarding “[2[3(trifluoromethyl)phenyl]aminonicotinato]2n -(aqua)n -copper(II)n [Cu(II)2 (niflumate)4]”, the “analgesic effectiveness versus parent ligand” value in assay [2] (oral, 5% gum arabic) is listed as “more effective than their parent ligand”; in assay [3] (oral, 5% gum arabic in saline), “more effective than their parent ligands”; in assay [3] (oral, PG-PVA), “more effective than their parent ligands”. Further, the ED50 in assay [2] (oral, 5% gum arabic in saline) is 0.18 mmol/kg; in assay [2] (oral, PG-PVA in saline) it was greater than 0.16 mmol/kg; in assay [2] (s.c., PG-PVA in saline) it was 0.03 mmol/kg; in assay [3] (oral, 5% gum arabic in saline), 0.09 mmol/kg; in assay [3] (oral, PG-PVA in saline) it was 0.10 mmol/kg; in assay [3] (s.c., PG-PVA in saline), 0.02 mmol/kg. Besides, the “% Inhibition” value in assay [2] (setting [9]) is 7%; in assay [2] (setting [10]), 13%; in assay [2] (s.c., PG-PVA, 0.01 mmol/kg) it was 17%; in assay [2] (s.c., PG-PVA, 0.02 mmol/kg), 50%; in assay [2] (s.c., PG-PVA, 0.04 mmol/kg), 60%; in assay [3] (setting [9]) it was 37%. Besides, the “% Inhibition” value turned out to be 48% in assay [3] (setting [10]); 33% in assay [3] (oral, PG-PVA, 0.06 mmol/kg); 57% in assay [3] (oral, PG-PVA, 0.12 mmol/kg); 73% in assay [3] (oral, PG-PVA, 0.24 mmol/kg); 37% in assay [3] (s.c., PG-PVA, 0.01 mmol/kg); 48% in assay [3] (s.c., PG-PVA, 0.02 mmol/kg). Further, the “% Inhibition” value in assay [3] (s.c., PG-PVA, 0.04 mmol/kg) stood at 58%.

Source of the values: patent publication US5541174A, “Analgesic method” (priority 1995, dated 1996).
